{
  "source": "ChEMBL document CHEMBL1155491",
  "about": "“Acylurea connected straight chain hydroxamates as novel histone deacetylase inhibitors: Synthesis, SAR, and in vivo antitumor activity” (Bioorg Med Chem Lett, 2010)",
  "key": {"[1]": {"target": "T1, Histone deacetylase 8 (Homo sapiens, UniProt Q9BY41)", "T1 sequence (Q9BY41 whole entry)": "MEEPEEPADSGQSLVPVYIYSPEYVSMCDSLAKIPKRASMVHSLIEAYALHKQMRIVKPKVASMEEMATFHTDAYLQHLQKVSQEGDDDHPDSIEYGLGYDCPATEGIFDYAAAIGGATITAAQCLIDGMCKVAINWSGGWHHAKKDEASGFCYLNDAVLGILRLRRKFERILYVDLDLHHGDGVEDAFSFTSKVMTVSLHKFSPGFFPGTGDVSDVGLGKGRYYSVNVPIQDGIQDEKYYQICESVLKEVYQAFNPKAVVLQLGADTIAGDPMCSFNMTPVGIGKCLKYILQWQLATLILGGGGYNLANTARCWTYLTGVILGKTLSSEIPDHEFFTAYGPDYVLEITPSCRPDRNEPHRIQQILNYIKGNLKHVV", "assay": "Inhibition of HDAC8"}, "[2]": {"target": "Histone deacetylase 4 (Homo sapiens, UniProt P56524)", "sequence (P56524 whole entry)": "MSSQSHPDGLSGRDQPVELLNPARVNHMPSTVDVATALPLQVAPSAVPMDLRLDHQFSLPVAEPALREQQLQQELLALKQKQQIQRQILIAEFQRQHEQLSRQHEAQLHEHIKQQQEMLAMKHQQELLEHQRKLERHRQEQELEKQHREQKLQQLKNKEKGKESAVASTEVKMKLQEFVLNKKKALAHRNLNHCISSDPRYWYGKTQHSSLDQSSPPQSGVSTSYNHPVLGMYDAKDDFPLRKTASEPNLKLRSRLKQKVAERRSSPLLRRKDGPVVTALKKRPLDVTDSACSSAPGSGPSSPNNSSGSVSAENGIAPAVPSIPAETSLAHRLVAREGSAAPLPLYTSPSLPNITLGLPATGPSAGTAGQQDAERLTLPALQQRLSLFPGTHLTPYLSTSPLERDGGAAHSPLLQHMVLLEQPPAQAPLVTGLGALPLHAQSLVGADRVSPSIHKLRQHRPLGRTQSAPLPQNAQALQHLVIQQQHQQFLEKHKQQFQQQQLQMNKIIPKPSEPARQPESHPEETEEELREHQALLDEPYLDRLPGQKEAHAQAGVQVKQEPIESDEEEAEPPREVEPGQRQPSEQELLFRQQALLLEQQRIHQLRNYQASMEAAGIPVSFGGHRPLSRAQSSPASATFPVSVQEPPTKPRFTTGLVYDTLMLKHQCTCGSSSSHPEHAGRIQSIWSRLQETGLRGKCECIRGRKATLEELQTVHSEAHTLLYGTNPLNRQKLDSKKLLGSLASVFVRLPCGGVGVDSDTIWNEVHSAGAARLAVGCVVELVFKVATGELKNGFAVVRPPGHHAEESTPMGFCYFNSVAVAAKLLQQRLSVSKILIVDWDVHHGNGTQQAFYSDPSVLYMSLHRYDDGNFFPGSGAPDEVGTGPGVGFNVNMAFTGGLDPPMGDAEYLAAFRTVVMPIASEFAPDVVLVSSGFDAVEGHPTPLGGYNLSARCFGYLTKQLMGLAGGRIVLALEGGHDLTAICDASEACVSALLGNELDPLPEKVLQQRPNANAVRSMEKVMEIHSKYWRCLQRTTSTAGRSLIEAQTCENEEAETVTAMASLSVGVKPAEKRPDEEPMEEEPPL", "assay": "Inhibition of HDAC4"}, "[3]": {"target": "T2, Histone deacetylase 11 (Homo sapiens, UniProt Q96DB2)", "T2 sequence (Q96DB2 whole entry)": "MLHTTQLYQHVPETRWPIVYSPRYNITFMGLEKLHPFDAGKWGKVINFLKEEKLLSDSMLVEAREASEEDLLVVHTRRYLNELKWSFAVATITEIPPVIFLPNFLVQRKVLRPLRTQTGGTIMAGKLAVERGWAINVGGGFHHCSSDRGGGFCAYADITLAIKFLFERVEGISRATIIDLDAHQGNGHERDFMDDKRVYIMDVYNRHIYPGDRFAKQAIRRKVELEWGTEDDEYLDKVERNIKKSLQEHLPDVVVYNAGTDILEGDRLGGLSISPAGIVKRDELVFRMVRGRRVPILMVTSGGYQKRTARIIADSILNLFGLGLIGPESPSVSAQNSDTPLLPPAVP", "assay": "Inhibition of HDAC11"}, "[4]": {"test_system": "HCT-116", "assay": "Antiproliferative activity against human HCT116 cells", "format": "functional, cell-based"}, "[5]": {"assay": "Half life in rat liver microsome", "format": "ADME", "details": "liver microsomes"}, "[6]": {"test_system": "PC-3", "assay": "Antitumor activity against human PC3 cells xenografted in nude mouse assessed as inhibition of tumor growth at 200 mg/kg, ip administered for 21 days measured or day 22", "format": "functional", "details": "PC-3, ip, route intraperitoneal, read-out: TGI"}, "[7]": {"test_system": "Mus musculus", "assay": "Toxicity in human HCT116 cells xenografted BALB/c mouse at 200 mg/kg, po", "format": "organism-based, HCT-116", "set-up": "dose 200 mg/kg, route oral", "details": "in vivo"}, "[8]": {"assay": "Cmax in mouse plasma at 50 mg/kg, po", "format": "ADME, organism-based", "set-up": "dose 50 mg/kg, route oral"}},
  "note": "pIC50, pKi: −log10 of the molar value.",
  "data": [
    {"smiles": "O=C(CCCCCNC(=O)NC(=O)c1ccccc1)NO", "values": [
      {"measurement": "pIC50", "setting": "[1]", "value": 6.22},
      {"measurement": "pKi", "setting": "[1]", "value": 6.60},
      {"measurement": "pKi", "setting": "[2]", "value": 7.70},
      {"measurement": "pKi", "setting": "[3]", "value": 7.41},
      {"measurement": "pIC50", "setting": "[4]", "value": 5.80},
      {"measurement": "half-life", "setting": "[5]", "value": "> 1", "unit": "h"},
      {"measurement": "inhibition in vivo at 200 mg/kg", "setting": "[6]", "value": 73, "unit": "%"},
      {"measurement": "Activity", "setting": "[7]", "value": "Toxic"},
      {"measurement": "Cmax", "setting": "[8]", "value": 22.4, "unit": "µM"}
    ]}
  ]
}
